Source: BindingDB's records for doi:10.1021/ja057257n (University of Pennsylvania, 2006)

Key:
[1] = biological target: Carbonic anhydrase 1 (Homo sapiens, UniProt P00915); assay: Competitive Displacement Binding Assay; conditions: pH 7; 25 °C
Protocol: (§1) The dissociation constant of the hCA and inhibitor complex was determined by competitive displacement of a fixed concentration of dansylamide by increasing concentrations of the inhibitor using Perkin-Elmer lambda 50-B spectrofluorometer. […] The dissociation constant of the enzyme-inhibitor complex was determined by monitoring the decrease in the fluorescence of the enzyme-dansylamide complex as a function of the increasing concentration of the inhibitor.

[2] = biological target: Carbonic anhydrase 2 (Homo sapiens, UniProt P00918); assay: Competitive Displacement Binding Assay; conditions: pH 7; 25 °C
Protocol: as §1

Carbonic anhydrase 1, sequence (P00915 whole entry): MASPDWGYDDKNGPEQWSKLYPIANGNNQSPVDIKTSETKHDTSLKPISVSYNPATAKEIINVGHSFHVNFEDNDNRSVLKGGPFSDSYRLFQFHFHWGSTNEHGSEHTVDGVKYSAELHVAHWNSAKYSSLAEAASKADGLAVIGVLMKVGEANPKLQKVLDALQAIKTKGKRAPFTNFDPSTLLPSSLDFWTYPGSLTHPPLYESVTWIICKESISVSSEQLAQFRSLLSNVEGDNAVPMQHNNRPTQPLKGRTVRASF

- Kd [1]: 200 nM
- Kd [2]: 235 nM
Structure (SMILES): NS(=O)(=O)c1ccc(CCNC(=O)c2ccc(CN(CC(=O)O)CC(=O)O)cc2)cc1 [copper(2+) ion 2-[(carboxylatomethyl)[(4-{[2-(4-sulfamoylphenyl)ethyl]carbamoyl}phenyl)methyl]amino]acetate]
